{
  "source": "patent US20090163696A1",
  "about": "“METHOD FOR PREPARING LYSOBACTIN DERIVATIVES” (priority 2006, published 2009)",
  "system": "Staphylococcus aureus 133, Entercococcus faecalis ICB27159 and Streptococcus pneumoniae G9a",
  "assay": "Determination of the minimum inhibitory concentration (MIC), liquid dilution test",
  "assay_type": "cell-based",
  "conditions": "lysobactin prepared by complete synthesis compared with fermented lysobactin",
  "experimental": "The in vitro effect of the compounds of the invention can be shown in the following assay: Determination of the Minimum Inhibitory Concentration (MIC): The MIC is determined in the liquid dilution test in accordance with the NCCLS guidelines. Overnight cultures of Staphylococcus aureus 133, Entercococcus faecalis ICB27159 and Streptococcus pneumoniae G9a are incubated with the described test substances in a 1:2 dilution series. The MIC determination is carried out with a cell count of 10^5 microbes per ml in Isosensitest medium (Difco, Irvine/USA), with the exception of S. pneumoniae, which is tested in BHI broth (Difco, Irvine/USA) with 10% bovine serum at a cell count of 10^6 microbes per ml. The cultures are incubated at 37° C. for 18-24 hours, S. pneumoniae in the presence of 10% CO2. The MIC is defined as the lowest concentration of each substance at which no visible bacterial growth occurs any longer. The MIC values are reported in μg/ml.",
  "note": "*1 amine or outer side, *2 acyl side, *3 side chain or, on linkers, in order; H or OH if unused. Where a SMILES comes first, the peptide text is derived from it. Bridges are numbered along the chain shown (N, C = ends). [ ]: non-standard residue; d: D form. ξ: configuration not given here. Phe(3R-OH) = O=C([C@@H](N[*:1])[C@H](O[*:3])c1ccccc1)[*:2]; Asn(3S-OH) = NC(=O)[C@@H](O)[C@H](N)C(=O)O; Leu(3R-OH) = CC(C)[C@@H](O)[C@H](N)C(=O)O; aThr = C[C@H](O)[C@H](N)C(=O)O; ξS = NC(CO)C(=O)O",
  "data": [
    {"smiles": "CC[C@H](C)[C@@H]1NC(=O)[C@@H](CCCNC(=N)N)NC(=O)[C@H](CC(C)C)NC(=O)[C@H]([C@H](O)C(C)C)NC(=O)[C@@H](NC(=O)[C@H](CC(C)C)NC(=O)[C@H](N)CC(C)C)[C@@H](c2ccccc2)OC(=O)C(CO)NC(=O)[C@H]([C@H](O)C(N)=O)NC(=O)CNC(=O)[C@H]([C@H](C)O)NC1=O", "note": "(stereo partly drawn) [lysobactin, Lysobactin Bistrifluoroacetate] (H-[dL]L[Phe(3R-OH)][Leu(3R-OH)]L[dR]I[aThr]G[Asn(3S-OH)][ξS]; ester 3-C)", "values": [
      {"measurement": "physiological activity (MIC)", "result": "No significant differences"}
    ]}
  ]
}
